Drawing on US9243001B2, “Substituted benzene compounds” (Epizyme, Inc., priority 2013, dated 2016), this text covers IC50 for twelve molecules.

The experiment concerns the target T1, wild-type EZH2 (PRC2 enzyme) (Homo sapiens, UniProt Q15910).
T1 construct: made in house; host or cells: Spodoptera frugiperda (sf9) cells, baculovirus
In words: PRC2 enzyme assay on peptide substrates (wild-type EZH2). Format: biochemical. The settings on record: wild-type PRC2 enzyme 4 nM, H3K27me0 peptide substrate, 3H-SAM Flashplate; read-out: WT EZH2 IC50. The source says: General Materials. S-adenosylmethionine (SAM), S-adenosylhomocyteine (SAH), bicine, KCl, Tween20, dimethylsulfoxide (DMSO) and bovine skin gelatin (BSG) were purchased from Sigma-Aldrich at the highest level of purity possible. Dithiothreitol (DTT) was purchased from EMD Millipore. ^3H-SAM was purchased from American Radiolabeled Chemicals with a specific activity of 80 Ci/mmol. 384-well streptavidin Flashplates were purchased from PerkinElmer.
Substrates. Peptides representative of human histone H3 residues 21- 44 containing either an unmodified lysine 27 (H3K27me0) or dimethylated lysine 27 (H3K27me2) are synthesized with a C-terminal G(K-biotin) linker-affinity tag motif and a C-terminal amide cap by 21st Century Biochemicals. The peptides are high-performance liquid chromatography (HPLC) purified to greater than 95% purity and confirmed by liquid chromatography mass spectrometry (LC-MS). The sequences are listed below.
Recombinant PRC2 Enzymes. Human PRC2 enzymes were purified as 4-component enzyme complexes co-expressed in Spodoptera frugiperda (sf9) cells using a baculovirus expression system. The subunits expressed were wild-type EZH2 (NM_004456) or EZH2 Y641F, N, H, S or C mutants generated from the wild-type EZH2 construct, EED (NM_003797), Suz12 (NM_015355) and RbAp48 (NM_005610). The EED subunit contained an N-terminal FLAG tag that was used to purify the entire 4-component complex from sf9 cell lysates. The purity of the complexes met or exceeded 95% as determined by SDS-PAGE and Agilent Bioanalyzer analysis. Concentrations of enzyme stock concentrations (generally 0.3-1.0 mg/mL) was determined using a Bradford assay against a bovine serum albumin (BSA) standard.
General Procedure for PRC2 Enzyme Assays on Peptide Substrates. The assays were all performed in a buffer consisting of 20 mM bicine (pH=7.6), 0.5 mM DTT, 0.005% BSG and 0.002% Tween20, prepared on the day of use. Compounds in 100% DMSO (1 μL) were spotted into polypropylene 384-well V-bottom plates (Greiner) using a Platemate 2×3 outfitted with a 384-channel pipet head (Thermo). DMSO (1 μL) was added to columns 11, 12, 23, 24, rows A -H for the maximum signal control, and SAH, a known product and inhibitor of PRC2 (1 μL) was added to columns 11,12, 23, 24, rows I -P for the minimum signal control. A cocktail (40 μL) containing the wild-type PRC2 enzyme and H3K27me0 peptide or any of the Y641 mutant enzymes and H3K27me2 peptide was added by Multidrop Combi (Thermo). The compounds were allowed to incubate with PRC2 for 30 min at 25° C., then a cocktail (10 μL) containing a mixture of non-radioactive and ^3H-SAM was added to initiate the reaction (final volume=51 μL). In all cases, the final concentrations were as follows: wild-type or mutant PRC2 enzyme was 4 nM, SAH in the minimum signal control wells was 1 mM and the DMSO concentration was 1%. The assays were stopped by the addition of non-radioactive SAM (10 μL) to a final concentration of 600 μM, which dilutes the ^3H-SAM to a level where its incorporation into the peptide substrate is no longer detectable. 50 μL of the reaction in the 384-well polypropylene plate was then transferred to a 384-well Flashplate and the biotinylated peptides were allowed to bind to the streptavidin surface for at least 1 h before being washed three times with 0.1% Tween20 in a Biotek ELx405 plate washer. The plates were then read in a PerkinElmer TopCount platereader to measure the quantity of ^3H-labeled peptide bound to the Flashplate surface, measured as disintegrations per minute (dpm) or alternatively, referred to as counts per minute (cpm).
Where dpm=disintegrations per minute, cmpd=signal in assay well, and min and max are the respective minimum and maximum signal controls.
Where top and bottom are the normally allowed to float, but may be fixed at 100 or 0 respectively in a 3-parameter fit. The Hill Coefficient normally allowed to float but may also be fixed at 1 in a 3-parameter fit. […]

Some results are limits rather than exact numbers.

For orientation: IC50 means the concentration at which inhibition is half-maximal.

T1 sequence (Q15910 1-751 isoform Q15910-2): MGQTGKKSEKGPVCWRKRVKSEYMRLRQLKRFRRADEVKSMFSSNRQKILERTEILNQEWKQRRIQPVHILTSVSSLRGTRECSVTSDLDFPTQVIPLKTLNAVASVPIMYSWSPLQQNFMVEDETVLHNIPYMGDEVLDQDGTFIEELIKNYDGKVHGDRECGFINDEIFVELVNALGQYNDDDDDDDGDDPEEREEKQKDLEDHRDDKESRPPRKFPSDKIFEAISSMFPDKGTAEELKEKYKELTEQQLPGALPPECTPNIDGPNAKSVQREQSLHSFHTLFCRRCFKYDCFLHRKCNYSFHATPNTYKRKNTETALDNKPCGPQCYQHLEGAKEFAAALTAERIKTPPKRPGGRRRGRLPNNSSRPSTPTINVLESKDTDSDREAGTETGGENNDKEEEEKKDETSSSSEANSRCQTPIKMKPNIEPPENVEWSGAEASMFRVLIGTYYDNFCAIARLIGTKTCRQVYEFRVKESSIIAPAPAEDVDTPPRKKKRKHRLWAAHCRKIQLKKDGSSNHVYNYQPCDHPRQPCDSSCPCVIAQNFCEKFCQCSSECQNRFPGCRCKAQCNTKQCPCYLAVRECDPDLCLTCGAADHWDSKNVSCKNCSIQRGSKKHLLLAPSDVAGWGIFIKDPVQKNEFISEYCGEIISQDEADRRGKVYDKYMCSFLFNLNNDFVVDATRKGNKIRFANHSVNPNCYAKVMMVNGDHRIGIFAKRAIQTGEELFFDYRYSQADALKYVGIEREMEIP
T1 sequence (O75530 whole entry partner): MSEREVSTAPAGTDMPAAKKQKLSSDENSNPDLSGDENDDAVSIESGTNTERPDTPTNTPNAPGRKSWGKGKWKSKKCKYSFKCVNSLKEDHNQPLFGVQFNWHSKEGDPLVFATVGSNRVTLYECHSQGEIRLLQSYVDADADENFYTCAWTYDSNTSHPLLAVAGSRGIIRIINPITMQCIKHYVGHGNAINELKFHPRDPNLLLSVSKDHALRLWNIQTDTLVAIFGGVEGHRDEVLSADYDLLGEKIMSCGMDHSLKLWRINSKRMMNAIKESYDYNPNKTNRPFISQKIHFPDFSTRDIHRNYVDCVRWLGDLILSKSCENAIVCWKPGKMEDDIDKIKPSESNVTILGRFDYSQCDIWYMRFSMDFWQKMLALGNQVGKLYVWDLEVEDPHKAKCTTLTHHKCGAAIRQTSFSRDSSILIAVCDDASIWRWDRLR
T1 sequence (Q15022 whole entry partner): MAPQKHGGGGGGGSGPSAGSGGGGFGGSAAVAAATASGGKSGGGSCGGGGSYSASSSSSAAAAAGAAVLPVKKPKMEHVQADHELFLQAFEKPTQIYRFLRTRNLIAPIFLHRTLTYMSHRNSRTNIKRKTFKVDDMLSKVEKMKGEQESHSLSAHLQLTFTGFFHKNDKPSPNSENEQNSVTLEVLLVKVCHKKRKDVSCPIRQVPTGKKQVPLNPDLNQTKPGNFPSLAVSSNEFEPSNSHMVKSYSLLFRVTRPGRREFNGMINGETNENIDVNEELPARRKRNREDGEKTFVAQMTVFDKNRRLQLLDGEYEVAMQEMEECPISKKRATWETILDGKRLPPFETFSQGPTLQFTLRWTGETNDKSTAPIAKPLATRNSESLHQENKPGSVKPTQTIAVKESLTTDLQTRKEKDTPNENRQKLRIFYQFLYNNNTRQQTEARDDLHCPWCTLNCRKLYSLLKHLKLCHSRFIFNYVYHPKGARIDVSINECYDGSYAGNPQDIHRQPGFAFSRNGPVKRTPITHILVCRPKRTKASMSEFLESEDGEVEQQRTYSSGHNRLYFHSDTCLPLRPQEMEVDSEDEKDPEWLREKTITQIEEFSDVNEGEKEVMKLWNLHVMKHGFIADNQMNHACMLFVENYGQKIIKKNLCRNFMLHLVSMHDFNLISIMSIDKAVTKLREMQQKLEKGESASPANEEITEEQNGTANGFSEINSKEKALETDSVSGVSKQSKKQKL
T1 sequence (Q09028 whole entry partner): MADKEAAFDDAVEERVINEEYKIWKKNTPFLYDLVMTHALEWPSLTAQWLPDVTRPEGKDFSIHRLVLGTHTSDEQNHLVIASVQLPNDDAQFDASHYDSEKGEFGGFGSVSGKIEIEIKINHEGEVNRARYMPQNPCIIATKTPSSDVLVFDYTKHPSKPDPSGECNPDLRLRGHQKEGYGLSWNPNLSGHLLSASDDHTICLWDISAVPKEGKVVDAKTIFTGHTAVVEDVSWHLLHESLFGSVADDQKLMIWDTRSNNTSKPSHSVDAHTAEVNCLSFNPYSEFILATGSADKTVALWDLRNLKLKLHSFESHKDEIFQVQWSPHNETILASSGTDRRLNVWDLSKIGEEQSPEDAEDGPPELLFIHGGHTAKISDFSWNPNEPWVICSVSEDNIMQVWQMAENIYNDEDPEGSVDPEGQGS

Turning to `CCN(c1cc(Cl)cc(C(=O)NCc2c(C)cc(C)n3ccnc23)c1C)[C@H]1CC[C@H](N(C)C)CC1` [Compound 1, 5-chloro-3-(((trans)-4-(dimethylamino)cyclohexyl)(ethyl)amino)-N-((5,7-dimethylimidazo[1,2-a]pyridin-8-yl)methyl)-2-methylbenzamide], the half-inhibitory concentration (IC50) turned out to be 0.433 µM.
For `CCN(c1cc(Cl)cc(C(=O)NCc2c(C)ccn3ccnc23)c1C)[C@H]1CC[C@H](N(C)C)CC1` [Compound 2, 5-chloro-3-(((trans)-4-(dimethylamino)cyclohexyl)(ethyl)amino)-2-methyl-N-((7-methylimidazo[1,2-a]pyridin-8-yl)methyl)benzamide] the value was 1.38 µM; for `CCN(c1cc(Cl)cc(C(=O)NCc2cccn3ccnc23)c1C)[C@H]1CC[C@H](N(C)C)CC1` [Compound 3, 5-chloro-3-(((trans)-4-(dimethylamino)cyclohexyl)(ethyl)amino)-N-(imidazo[1,2-a]pyridin-8-ylmethyl)-2-methylbenzamide], 2.18 µM.
The figure for `CCN(c1cc(Cl)cc(C(=O)NCc2ccc(C)c3cn(C)nc23)c1C)C1CCC(N(C)C)CC1` (stereo not drawn) [Compound 4, 5-chloro-N-((2,4-dimethyl-2H-indazol-7-yl)methyl)-3-(((1s,4s)-4-(dimethylamino)cyclohexyl)(ethyl)amino)-2-methylbenzamide] is 5.13 µM.
The figure for `CCN(c1cc(Cl)cc(C(=O)NCc2c(C)ccc3cn(C)nc23)c1C)[C@H]1CC[C@H](N(C)C)CC1` [Compound 5, 5-chloro-N-((2,6-dimethyl-2H-indazol-7-yl)methyl)-3-(((trans)-4-(dimethylamino)cyclohexyl)(ethyl)amino)-2-methylbenzamide] is over 10 µM; for `CCN(c1cc(Cl)cc(C(=O)NCc2cccc3cn(C)nc23)c1C)[C@H]1CC[C@H](N(C)C)CC1` [Compound 6, 5-chloro-3-(((trans)-4-(dimethylamino)cyclohexyl)(ethyl)amino)-2-methyl-N-((2-methyl-2H-indazol-7-yl)methyl)benzamide] it is over 10 µM.
For the molecule `CCN(c1cc(Cl)cc(C(=O)NCc2cccc3ccnn23)c1C)[C@H]1CC[C@H](N(C)C)CC1` [Compound 7, 5-chloro-3-(((trans)-4-(dimethylamino)cyclohexyl)(ethyl)amino)-2-methyl-N-(pyrazolo[1,5-a]pyridin-7-ylmethyl)benzamide], the IC50 is over 10 µM.
For `CCN(c1cc(Cl)cc(C(=O)NCCc2nccn2C)c1C)[C@H]1CC[C@H](N(C)C)CC1` [Compound 8, 5-chloro-3-(((trans)-4-(dimethylamino)cyclohexyl)(ethyl)amino)-2-methyl-N-(2-(1-methyl-1H-imidazol-2-yl)ethyl)benzamide] the value was 12.2 µM.
For `CCN(c1cc(Cl)cc(C(=O)NCCc2nccn2Cc2ccccc2)c1C)[C@H]1CC[C@H](N(C)C)CC1` [Compound 9, N-(2-(1-benzyl-1H-imidazol-2-yl)ethyl)-5-chloro-3-(((trans)-4-(dimethylamino)cyclohexyl)(ethyl)amino)-2-methylbenzamide] the value was 1.65 µM; for `CCN(c1cc(Cl)cc(C(=O)NCCc2ncc[nH]2)c1C)[C@H]1CC[C@H](N(C)C)CC1` [Compound 10, N-(2-(1H-imidazol-2-yl)ethyl)-5-chloro-3-(((trans)-4-(dimethylamino)cyclohexyl)(ethyl)amino)-2-methylbenzamide], 2.03 µM.
Regarding `CCN(c1cc(Cl)cc(C(=O)NCCc2nc3ccccc3n2C)c1C)[C@H]1CC[C@H](N(C)C)CC1` [Compound 11, 5-chloro-3-(((trans)-4-(dimethylamino)cyclohexyl)(ethyl)amino)-2-methyl-N-(2-(1-methyl-1H-benzo[d]imidazol-2-yl)ethyl)benzamide], the IC50 was over 50 µM.
The figure for `CCN(c1cc(Cl)cc(C(=O)NCCc2nccs2)c1C)[C@H]1CC[C@H](N(C)C)CC1` [Compound 12, 5-chloro-3-(((trans)-4-(dimethylamino)cyclohexyl)(ethyl)amino)-2-methyl-N-(2-(thiazol-2-yl)ethyl)benzamide] is over 50 µM.
